This is an account of results in patent publication US12522594B2, “2-heteroaryl-3-oxo-2,3-dihydropyridazine-4-carboxamides for the treatment of cancer” (Deutsches Krebsforschungszentrum, priority 2017, dated 2026).

pIC50: −log10 of the molar value.

The target of assay [1] is T1, AHR (Homo sapiens, UniProt P35869).
T1 sequence (P35869 11-848): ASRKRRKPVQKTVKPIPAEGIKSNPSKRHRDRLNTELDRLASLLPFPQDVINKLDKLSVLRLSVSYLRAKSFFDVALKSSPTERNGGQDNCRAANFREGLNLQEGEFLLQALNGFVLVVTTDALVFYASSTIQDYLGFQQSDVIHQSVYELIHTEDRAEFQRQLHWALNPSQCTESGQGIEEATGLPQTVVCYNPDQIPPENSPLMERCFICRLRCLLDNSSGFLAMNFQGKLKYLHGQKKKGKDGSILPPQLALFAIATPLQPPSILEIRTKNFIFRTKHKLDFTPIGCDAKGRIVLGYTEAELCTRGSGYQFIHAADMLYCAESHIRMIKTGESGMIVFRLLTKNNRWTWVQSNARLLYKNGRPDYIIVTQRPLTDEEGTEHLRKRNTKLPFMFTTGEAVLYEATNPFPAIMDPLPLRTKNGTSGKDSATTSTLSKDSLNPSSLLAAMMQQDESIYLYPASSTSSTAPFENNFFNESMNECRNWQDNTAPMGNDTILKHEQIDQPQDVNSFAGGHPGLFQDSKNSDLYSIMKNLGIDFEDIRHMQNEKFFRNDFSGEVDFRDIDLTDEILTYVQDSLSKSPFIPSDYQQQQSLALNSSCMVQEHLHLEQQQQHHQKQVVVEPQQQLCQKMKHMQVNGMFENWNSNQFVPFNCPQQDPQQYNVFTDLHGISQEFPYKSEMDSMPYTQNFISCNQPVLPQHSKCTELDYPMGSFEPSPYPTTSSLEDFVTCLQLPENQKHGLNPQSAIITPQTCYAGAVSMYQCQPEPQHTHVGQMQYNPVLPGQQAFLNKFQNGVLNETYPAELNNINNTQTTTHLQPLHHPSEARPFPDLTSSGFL
Nature of the assay: In vitro assay 2: agonism in human cell line (transactivation assay, U87 cells, DRE firefly luciferase reporter). The class given is cell-based. Details: host or cells: U87 glioblastoma cells, stably transfected with DRE firefly luciferase and renilla reporter constructs. Particulars: no kynurenic acid, 20 hours, read-out: Assay 2: AHR-luc Hum Agonism IC50. Put shortly: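 Agonist readout: DRE firefly luciferase, with constitutive renilla reporter, in stably transfected U87 cells expressing AHR endogenously. Normalization used positive control (300 uM kynurenic acid) and negative control.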
For orientation: A reporter such as luciferase makes a cellular process visible.

In assay [2] the target is T1, AHR. Nature of the assay: In vitro assay 1: antagonism in human cell line (transactivation assay, U87 cells prestimulated with kynurenic acid, DRE firefly luciferase reporter). The assay is classed as cell-based. Details: host or cells: U87 glioblastoma cells, stably transfected with DRE firefly luciferase and renilla reporter constructs. The conditions noted are these: 150 uM kynurenic acid, 20 hours, read-out: Assay 1: AHR-luc Hum Antagonism IC50. The essentials:
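Antagonism measured after kynurenic acid prestimulation in U87 cells that express AHR endogenously and stably harbor a firefly luciferase gene under DRE control plus a constitutive renilla construct. Positive and negative controls served for normalization.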

One may read the pIC50 as the IC50 on a negative log10 scale, so that one unit is a factor of ten.

With `O=C(N[C@H](CO)C(F)(F)F)c1cc(-c2ccc(Cl)cc2)nn(-c2cnn(C3CCC3)c2)c1=O` [Example 41, 6-(4-Chlorophenyl)-2-(1-cyclobutyl-1H-pyrazol-4-yl)-3-oxo-N-[(2R)-1,1,1-trifluoro-3-hydroxypropan-2-yl]-2,3-dihydropyridazine-4-carboxamide], the pIC50 on AHR [1] is less than 4.70; on AHR [2], 5.78.

For the molecule `O=C(N[C@@H]1CC[C@@H]1O)c1cc(-c2ccc(Cl)cc2)nn(-c2cccnc2)c1=O` (single isomer, unassigned) [Example 281, (−)-6-(4-Chlorophenyl)-N-cis-2-hydroxycyclobutyl-3-oxo-2-(pyridin-3-yl)-2,3-dihydropyridazine-4-carboxamide], the pIC50 is less than 4.70 at AHR [1] and 6.58 at AHR [2].

As for `Cn1cc(-n2nc(-c3ccc(OC(F)(F)F)cc3)cc(C(=O)N[C@@H]3COC[C@H]3O)c2=O)cn1` (racemic) [Example 63, N-[(trans)-4-Hydroxytetrahydrofuran-3-yl]-2-(1-methyl-1H-pyrazol-4-yl)-3-oxo-6-[4-(trifluoromethoxy)phenyl]-2,3-dihydropyridazine-4-carboxamide], the negative-log IC50 (pIC50) is less than 4.70 on AHR [1] and 7.09 on AHR [2].

Take `O=C(N[C@H]1COC[C@H]1O)c1cc(-c2ccc(C(F)F)nc2)nn(-c2cccnc2)c1=O` (relative stereo) [Example 182, 6-[6-(Difluoromethyl)pyridin-3-yl]-N-[(cis)-4-hydroxytetrahydrofuran-3-yl]-3-oxo-2-(pyridin-3-yl)-2,3-dihydropyridazine-4-carboxamide]: the negative logarithm of the IC50 (pIC50) was less than 4.70 at AHR [1] and 5.21 on AHR [2].

Take `N#C[C@@H](CO)NC(=O)c1cc(-c2ccc(C(F)(F)F)nc2)nn(-c2cncc(F)c2)c1=O` [Example 341, N-[(1S)-1-Cyano-2-hydroxyethyl]-2-(5-fluoropyridin-3-yl)-3-oxo-6-[6-(trifluoromethyl)pyridin-3-yl]-2,3-dihydropyridazine-4-carboxamide]: the pIC50 was less than 4.70 on AHR [1] and 6.99 at AHR [2].

In the case of `C[C@@H](NC(=O)c1cc(-c2ccc(Cl)cc2)nn(-c2cccnc2)c1=O)C(C)(C)O` [Example 302, 6-(4-Chlorophenyl)-N-[(2R)-3-hydroxy-3-methylbutan-2-yl]-3-oxo-2-(pyridin-3-yl)-2,3-dihydropyridazine-4-carboxamide], the values for the pIC50 on AHR [1] and at AHR [2] were less than 4.70 and 7.09, respectively.

In the case of `O=C(N[C@@H]1CCC[C@H]1O)c1cc(-c2ccc(Cl)cc2)nn(-c2cccnc2)c1=O` (relative stereo) [Example 148, 6-(4-Chlorophenyl)-N-[(trans)-2-hydroxycyclopentyl]-3-oxo-2-(pyridin-3-yl)-2,3-dihydropyridazine-4-carboxamide], the pIC50 is less than 4.70 on AHR [1] and 7.82 at AHR [2].

Turning to `Cn1cc(-n2nc(-c3ccc(OC(F)(F)F)cc3)cc(C(=O)N[C@@H]3COC[C@H]3O)c2=O)cn1` (single isomer, unassigned; enantiomer 1) [Example 64, N-[(trans)-4-Hydroxytetrahydrofuran-3-yl]-2-(1-methyl-1H-pyrazol-4-yl)-3-oxo-6-[4-(trifluoromethoxy)phenyl]-2,3-dihydropyridazine-4-carboxamide, Enantiomer 1], the pIC50 is less than 4.70 on AHR [1] and 7.09 on AHR [2].

Take `COC[C@@H](CO)NC(=O)c1cc(-c2ccc(C(F)(F)F)cc2)nn(-c2cccnc2)c1=O` [Example 257, N-[(2R)-1-Hydroxy-3-methoxypropan-2-yl]-3-oxo-2-(pyridin-3-yl)-6-[4-(trifluoromethyl)phenyl]-2,3-dihydropyridazine-4-carboxamide]: the negative logarithm of the IC50 (pIC50) was less than 4.70 at AHR [1] and 7.58 on AHR [2].

Regarding `O=C(NC[C@H](O)CF)c1cc(-c2ccc(C(F)(F)F)cc2)nn(-c2cccnc2)c1=O` [Example 255, N-[(2S)-3-Fluoro-2-hydroxypropyl]-3-oxo-2-(pyridin-3-yl)-6-[4-(trifluoromethyl)phenyl]-2,3-dihydropyridazine-4-carboxamide], the figures for the negative-log IC50 (pIC50) at AHR [1] and at AHR [2] were less than 4.70 and 7.59, respectively.
